# From US20220062340A1, “IMMUNOTHERAPEUTIC METHODS AND COMPOSITIONS” (KING'S COLLEGE LONDON, priority 2018, published 2022)
# What was measured:
# [1] = test system: integrin α4β7 on Treg surface; assay: Induction of integrin α4β7 on bulk Treg surface by RARα agonists (FIG. 6); type: cell-based; conditions: bulk CD4+CD25+CD127− Tregs, 12 days stimulation, reducing agonist concentrations
# Method: Bulk Tregs (CD4+CD25+CD127−) Tregs (50,000 per well) were expanded in vitro with reducing concentrations of the agonists. Culture conditions: 2 aCD3/aCD28 beads/cell, 1000IU/mL IL-2, 0.1 nM Rapamycin+Agonist in X-vivo 15. Following 12 days stimulation, cells were stained for CD4, CD25, CD127, FOXP3, Integrin a4, Integrin b7, CD15s, CD161 and acquired on a BD symphony flow cytometer. Data was analysed in Flowjo and Prism.
# integrin α4β7 on Tregs = assay: α4β7 expression on ex vivo expanded CD45RA+ Tregs from CD patients (flow cytometry); type: cell-based, human; conditions: CD4+CD25hiCD127loCD45RA+ Tregs cultured with rapamycin and high dose IL-2 plus the agonist; mean ± SD
# Method: “Complete X-VIVO-15” (Lonza, Walkersville, MD) was used for ex vivo Treg expansion, Treg cytokine challenge experiments and Treg suppression assays. This was supplemented with 100 nM or 10 nM Rapamycin and all-trans retinoic acid (ATRA) 2 μM or 1 nM, or Rapamycin and RAR568 1 nM.
# (§1) FACS-sorted Treg populations were plated at 1×10^6 or 0.5×10^6 in X-VIVO-15 medium and activated with anti-CD3/anti-CD28 coated beads (Dynabeads®, Invitrogen, Paisley, UK) at 1:1 bead: cell ratio. Rapamycin was added at day 0 of culture at a final concentration of 100 nM/L +/−ATRA 1 nM/L or RAR568 1 nM/L. Next, 1,000 IU/ml recombinant human IL-2 (rhlL-2) (Proleukin®, Novartis, Camberley, UK) was added at day 5 of culture. Cells were re-stimulated every 10-12 days and expanded for a total of 24-30 days. The phenotype and suppressive ability were assessed at the end of the culture period.
# Flow cytometry panels have been designed to assess the subtypes of regulatory T cells in patients with CD as well as their expression of gut homing molecules. Gating was performed based on natural populations when assessing for CD4^+CD25^highCD127low populations, as well as for CD45RA^+ Treg populations. Additionally, to minimize bias in the assessment of expression of gut homing markers and transcription factors, a fluorochrome minus one (FMO) panel was added for each marker of interest in each experiment that was performed. […]
# Tregs from CD patients = assay: Gene array of expanded Tregs from CD patients; type: cell-based, human
# Method: Gene array analyses were carried out using Partek® software with a 1-way ANOVA to assess for differential gene expression.
# 1) RNA extraction was performed using Qiagen RNEasy mini/micro kits as per manufacturer's instructions. The samples were checked for RNA quality using the Agilent 2100 Bioanalyzer and quantified using the Nanodrop (ND-1000 Spectrophotometer). Samples which passed QC (RIN>8) were chosen such that input amount of each sample was 3 ng.
# 2) SPIA cDNA was generated using the “Ovation Pico WTA System V2” kit from Nugen, following the manufacturer's instructions.
# 3) The SPIA cDNA was subjected to a QC check to assess quality (Agilent 2100 Bioanalyzer) and quantity (Nanodrop ND-1000 Spectrophotometer) for the next stage.
# 4) The SPIA cDNA was fragmented and Biotin-labelled using the “Encore Biotin Module” from Nugen according to the manufacturer's instructions and passed through QC checks to assess fragmentation size (Agilent 2100 Bioanalyzer).
# 6) Hybridization cocktails were prepared of the fragmented labelled-cDNA according to Nugen's recommendations and hybridized at 45° C. overnight in an oven.
# 7) The arrays were washed and stained using wash protocol FS450_0002 (Affymetrix protocol recommended for Human Gene 2.0 Arrays on the GeneChip Fluidics station 450.
# 8) The arrays were scanned using the Affymetrix GeneChip Scanner.
# Gene expression analyses were performed on Tregs from CD patients expanded in the presence of Rapa+ATRA, Rapa+RAR568 or rapamycin only (n=3 in each group). […] CD161 has previously been described as a marker of T helper (Th) 17-like Tregs^32. This was not observed in the RAR568-treated group. […] IL-18 Receptor 1 and STAT4 are responsible for Th1 lineage commitment and IFNγ production, both have been independently identified as IBD disease related polymorphisms on GWAS^33-36. CD38 has been identified as a marker associated with mature T cells, signaling reduced proliferation, but an increased ability to produce pro-inflammatory cytokines such as IFNγ^37. Ligation of GPR174 negatively affects Treg accumulation and function^38. No clear difference in transcripts for canonical pathways were identified when ATRA treated cells were compared with RAR568 treated cells.
# To assess for off target RARγ effects, we compared the gene expression profiles of RAR568 and ATRA treated cells to a published dataset of RARγ target genes^39. […] Given the efficacy at inducing α4β7 and lack of off target effects, RAR568 fulfilled the target product profile for an agent that could be used for ex vivo Treg expansion for cell-based therapy purposes. Therefore, we probed this effect of RAR568 on Tregs from CD patients in functional in vitro and in vivo trafficking assays.
# Effector T cells (Teff) = assay: Treg suppression assay (proliferation of CFSE-labelled Teff); type: cell-based, human; conditions: lowest (8:1) Teff:Treg titration, FIG. 2e
# Method: Effector T cells (Teff) were labelled with carboxyfluorescein succinimidyl ester (CFSE, Invitrogen) according to standard protocols. Cells were washed with phosphate buffered saline (PBS) to remove excess protein. Cells were then incubated with a 1 μM/L CFSE solution in the dark at room temperature for 4 minutes. The reaction was then quenched with 9 ml of complete medium.
# Teff were activated with anti-CD3/anti-CD28 micro beads at a bead: Teff ratio of 0.02:1. 1×10^5 Teff were then cultured either alone or with Tregs in serial dilutions. The ratios of Teff: Treg were 1:1, 2:1, 4:1, and 8:1. This was done in X-VIVO-15 and proliferation rates were assessed by flow cytometry after 5 days of incubation.
# Percentage suppression (S) of proliferation was calculated using the following formula:
# Where c=percentage of proliferating precursors in the presence of Tregs and d=percentage of proliferating precursors in the absence of Tregs.
# Ex vivo expanded Tregs = assay: IL-17 and IFNγ production under pro-inflammatory cytokine challenge (ELISA); type: cell-based, human; conditions: Tregs expanded ex vivo in the presence of the agonist, FIG. 2f
# Method: Cytokine concentrations were measured using the Ready-SET-Go sandwich ELISA kits from eBioscience.
# Ex vivo expanded Tregs were activated with CD3/CD28 beads at a 1:20 ratio and cultured at 10^6cells/m1 in X-VIVO for 5 days at 37° C./5% CO2, supplemented with the following cytokine cocktail: A) IL-2 (10 IU/mL, Proleukin); (B) IL-2, IL-1 (10 ng/mL), IL-6 (4 ng/mL) and transforming growth factor-β (TGF-β (5 ng/mL), IL-21 (25 ng/mL), IL-23 (25 ng/mL) (all R&D Systems). Supernatant IL-17 and interferon gamma (IFNγ) concentrations were measured by ELISA.
# FOXP3 in Tregs = assay: FOXP3 expression of ex vivo expanded Tregs; type: cell-based, human; conditions: Tregs expanded in the presence of the agonist
# Method: as §1
# (§2) Flow cytometry panels have been designed to assess the subtypes of regulatory T cells in patients with CD as well as their expression of gut homing molecules. Gating was performed based on natural populations when assessing for CD4^+CD25^highCD127low populations, as well as for CD45RA^+ Treg populations. Additionally, to minimize bias in the assessment of expression of gut homing markers and transcription factors, a fluorochrome minus one (FMO) panel was added for each marker of interest in each experiment that was performed.
# integrin β7 on Tregs = assay: Dose response of integrin β7 induction on expanded Tregs; type: cell-based; conditions: Homo sapiens; Tregs in in vitro culture, FIG. 2c; read-out: EC50 to induce the expression of integrin β7
# Method: as §1, §2
# MAdCAM-1 = assay: In-vitro trafficking assay, MAdCAM-1 coated Ibidi flow chamber; type: cell-based, human; conditions: cells treated with monoclonal antibody to integrin α4β7, FIG. 4
# Method: Ibidi (Martinsreid, Germany) μ-Slides VI″ were coated with recombinant human MAdCAM-1 (R&D Systems, Minneapolis, Minn.), at a concentration of 10μg/ml and incubated overnight. Cells from two CD patients that had previously undergone ex vivo expansion under two parallel conditions (Rapa and Rapa+RAR568) and had been frozen in liquid nitrogen were defrosted and rested overnight. Rested cells were then activated with rhCCL25 (R&D systems) and passed through the coated Ibidi flow chamber at a rate of 1 dyne/cm^2. The total number of cells, as well as those rolling, adherent and crawling was quantified from six randomly selected fields of view per treatment.
# In order to assess the physiological relevance of the induction of α4β7 expression by RAR568, treated and untreated Tregs from CD patients were passed through a MAdCAM-1 coated flow chamber (FIG. 10). The total number of cells adherent to the chamber, as well as their stages of rolling, adhesion and crawling, were compared to cells that were expanded under standard conditions.
molecule,measurement,setting,value
"CC1(C)CCC(C)(C)c2cc(NC(=O)c3ccc(C(=O)O)cc3)ccc21 [AM80, tamibarotene]",induction of integrin α4β7 on Treg surface,[1],comparable effects
CC1(C)CCC(C)(C)c2cc(C(=O)Nc3ccc(C(=O)O)cc3)ccc21 [AM580],induction of integrin α4β7 on Treg surface,[1],comparable effects
"CC1=C(/C=C/C(C)=C/C=C/C(C)=C/C(=O)O)C(C)(C)CCC1 [ATRA, all-trans retinoic acid, reference compound]",α4β7 expression of expanded Tregs,integrin α4β7 on Tregs,74.21±25.89
same,transcripts for CD161,"Tregs from CD patients; compared to rapamycin only, n=3",significant increase
same,"increase in the expression of STAT4, IL18R1, CD38 and GPR174","Tregs from CD patients; compared to rapamycin only, p<0.05, FIG. 3a",> 2 fold
same,RARγ target genes upregulated,"Tregs from CD patients; off target RARγ effects, compared to published dataset, FIG. 3b",Eleven
same,Suppressive ability of expanded Tregs,Effector T cells (Teff),became less suppressive at the lowest titration
same,IFNγ production following pro-inflammatory cytokine challenge,Ex vivo expanded Tregs,did not produce
same,IL-17 production following pro-inflammatory cytokine challenge,Ex vivo expanded Tregs,did not produce
same,FOXP3 expression of expanded Tregs,FOXP3 in Tregs; mean ± SD,86.15±19.88%
same,"FOXP3 expression, range",FOXP3 in Tregs; range,40.2-99.7
same,EC50,integrin β7 on Tregs,1.5 nM
Vedolizumab: monoclonal antibody to integrin α4β7,cell migration of RAR568-treated Tregs in MAdCAM-1 coated flow chamber,MAdCAM-1,All stages of cell migration were blocked
